Data from patent publication US20080009418A1, “Selective Inhibitors” (Alchemia LTD., priority 2004, published 2008).

Tests used:
[1] = target: T1, Human neuropeptide Y (NPY-Y1) (Homo sapiens, UniProt P25929); test: Radioligand binding, human neuropeptide Y NPY-Y1 membranes, FlashPlate, [125I]-PYY; conditions: compound at 10 μM; [125I]-PYY
T1 construct: purchased Perkin Elmer Biosignal
T1 sequence (P25929 1-384): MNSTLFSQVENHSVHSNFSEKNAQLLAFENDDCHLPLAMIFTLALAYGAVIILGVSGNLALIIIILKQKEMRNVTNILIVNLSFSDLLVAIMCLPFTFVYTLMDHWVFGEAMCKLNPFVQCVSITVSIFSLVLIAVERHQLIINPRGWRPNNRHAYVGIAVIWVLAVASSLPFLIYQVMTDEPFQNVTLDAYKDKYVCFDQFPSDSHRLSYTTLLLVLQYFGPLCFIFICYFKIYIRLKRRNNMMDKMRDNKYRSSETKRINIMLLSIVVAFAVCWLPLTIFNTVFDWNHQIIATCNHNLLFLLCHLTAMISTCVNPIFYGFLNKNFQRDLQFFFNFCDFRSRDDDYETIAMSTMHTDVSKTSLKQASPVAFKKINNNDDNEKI
How it was run: (§1)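 Cloned human receptor membranes were coated onto FlashPlate wells and incubated with radioligand and compound (added from a 0.5 mM DMSO daughter plate) for 1 hour at room temperature in the dark. Scintillation counting gave percent inhibition, with DMSO defining total and reference ligand defining non-specific binding.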

Human opioid (ORL1) = target: T2, Human opioid (ORL1) (Homo sapiens, UniProt P41146); test: Radioligand binding, human opioid ORL1 membranes, FlashPlate, [125I]-Nociceptin; conditions: compound at 10 μM; [125I]-Nociceptin
T2 construct: purchased Perkin Elmer Biosignal
T2 sequence (P41146 whole entry): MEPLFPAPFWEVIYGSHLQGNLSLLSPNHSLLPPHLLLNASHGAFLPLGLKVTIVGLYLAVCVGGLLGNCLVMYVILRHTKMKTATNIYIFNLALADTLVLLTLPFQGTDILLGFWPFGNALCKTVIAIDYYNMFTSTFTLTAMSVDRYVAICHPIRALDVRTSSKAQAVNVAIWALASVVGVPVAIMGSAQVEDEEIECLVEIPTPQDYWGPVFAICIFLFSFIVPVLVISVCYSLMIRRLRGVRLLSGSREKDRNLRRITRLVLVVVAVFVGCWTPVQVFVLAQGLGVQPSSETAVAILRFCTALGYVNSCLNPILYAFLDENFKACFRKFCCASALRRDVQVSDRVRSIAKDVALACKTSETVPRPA
How it was run: as §1

Human κ-Opioid (KOP) = target: T3, Human κ-Opioid (KOP) (Homo sapiens, UniProt P41145); test: Radioligand binding, human κ-opioid (KOP) membranes, filtration, [3H]-Diprenorphine; conditions: compound at 10 μM; [3H]-Diprenorphine
T3 construct: purchased Perkin Elmer Biosignal
T3 sequence (P41145 whole entry): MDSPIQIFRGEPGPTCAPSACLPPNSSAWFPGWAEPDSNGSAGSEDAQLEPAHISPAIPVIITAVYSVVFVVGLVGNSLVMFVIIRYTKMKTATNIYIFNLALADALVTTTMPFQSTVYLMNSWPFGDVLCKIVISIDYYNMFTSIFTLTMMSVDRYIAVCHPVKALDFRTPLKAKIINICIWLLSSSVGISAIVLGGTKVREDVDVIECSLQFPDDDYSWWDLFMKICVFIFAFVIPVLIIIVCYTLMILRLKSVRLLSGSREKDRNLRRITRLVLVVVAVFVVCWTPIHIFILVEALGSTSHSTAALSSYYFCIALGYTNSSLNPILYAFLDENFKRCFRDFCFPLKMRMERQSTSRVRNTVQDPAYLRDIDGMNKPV
How it was run: (§2)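 Filtration binding on cloned human receptor membranes (1 Unit/well), [125I]-Substance P for NK1 and [3H]-Diprenorphine for KOP, 1 h at room temperature. Filters PEI-presoaked, washed with cold 50 mM Tris-HCl pH 7.4, counted by scintillation; percent inhibition calculated, reference ligand defining non-specific binding.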

Human Melanocortin (MC4) = target: T4, Human Melanocortin (MC4) (Homo sapiens, UniProt P32245); test: Radioligand binding, human melanocortin MC4 membranes, FlashPlate, [125I]-NDP-αMSH; conditions: compound at 10 μM; [125I]-NDP-αMSH
T4 construct: purchased Perkin Elmer Biosignal
T4 sequence (P32245 whole entry): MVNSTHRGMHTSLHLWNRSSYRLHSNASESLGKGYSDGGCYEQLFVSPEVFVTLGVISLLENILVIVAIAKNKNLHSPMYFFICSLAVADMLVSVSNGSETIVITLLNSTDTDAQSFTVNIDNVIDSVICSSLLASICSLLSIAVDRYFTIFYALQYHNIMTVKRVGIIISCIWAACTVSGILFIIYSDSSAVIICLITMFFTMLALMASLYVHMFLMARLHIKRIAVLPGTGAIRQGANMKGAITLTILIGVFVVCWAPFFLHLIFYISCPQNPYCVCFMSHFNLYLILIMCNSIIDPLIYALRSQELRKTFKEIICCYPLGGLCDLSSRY
How it was run: as §1

[2] = target: T5, Human melanin-concentrating hormone (MCH1) (Homo sapiens, UniProt Q99705); test: Radioligand binding, human melanin-concentrating hormone MCH1 membranes, FlashPlate, [125I]-S36057; conditions: compound at 10 μM; [125I]-S36057
T5 construct: purchased Perkin Elmer Biosignal
T5 sequence (Q99705 whole entry): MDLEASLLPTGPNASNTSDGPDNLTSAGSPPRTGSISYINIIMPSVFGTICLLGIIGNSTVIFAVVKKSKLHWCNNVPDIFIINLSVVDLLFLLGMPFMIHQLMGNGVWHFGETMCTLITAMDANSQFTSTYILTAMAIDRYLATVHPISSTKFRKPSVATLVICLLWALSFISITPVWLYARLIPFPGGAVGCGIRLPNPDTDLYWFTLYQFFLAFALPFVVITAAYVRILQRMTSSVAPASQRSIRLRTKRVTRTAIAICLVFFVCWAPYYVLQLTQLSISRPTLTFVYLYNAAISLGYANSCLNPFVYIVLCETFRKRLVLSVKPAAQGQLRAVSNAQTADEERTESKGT
How it was run: as §1

Human melanocortin (MC5) = target: T6, Human melanocortin (MC5) (Homo sapiens, UniProt P33032); test: Radioligand binding, human melanocortin MC5 membranes, FlashPlate, [125I]-NDP-αMSH; conditions: compound at 10 μM; [125I]-NDP-αMSH
T6 construct: purchased Perkin Elmer Biosignal
T6 sequence (P33032 whole entry): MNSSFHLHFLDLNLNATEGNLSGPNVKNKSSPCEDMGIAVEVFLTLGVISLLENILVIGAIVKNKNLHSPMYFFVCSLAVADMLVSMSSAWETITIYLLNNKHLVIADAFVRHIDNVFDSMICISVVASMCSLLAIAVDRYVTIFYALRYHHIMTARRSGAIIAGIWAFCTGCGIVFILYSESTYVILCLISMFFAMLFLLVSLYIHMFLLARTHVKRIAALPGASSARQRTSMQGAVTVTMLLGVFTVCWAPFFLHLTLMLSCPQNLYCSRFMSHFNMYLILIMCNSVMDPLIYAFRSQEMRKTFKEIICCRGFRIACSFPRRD
How it was run: as §1

Human δ-opioid (DOP) = target: T7, Human δ-opioid (DOP) (Homo sapiens, UniProt P41143); test: Radioligand binding, human δ-opioid (DOP) membranes, FlashPlate, [3H]-Bremazocine; conditions: compound at 10 μM; [3H]-Bremazocine
T7 construct: purchased Perkin Elmer Biosignal
T7 sequence (P41143 whole entry): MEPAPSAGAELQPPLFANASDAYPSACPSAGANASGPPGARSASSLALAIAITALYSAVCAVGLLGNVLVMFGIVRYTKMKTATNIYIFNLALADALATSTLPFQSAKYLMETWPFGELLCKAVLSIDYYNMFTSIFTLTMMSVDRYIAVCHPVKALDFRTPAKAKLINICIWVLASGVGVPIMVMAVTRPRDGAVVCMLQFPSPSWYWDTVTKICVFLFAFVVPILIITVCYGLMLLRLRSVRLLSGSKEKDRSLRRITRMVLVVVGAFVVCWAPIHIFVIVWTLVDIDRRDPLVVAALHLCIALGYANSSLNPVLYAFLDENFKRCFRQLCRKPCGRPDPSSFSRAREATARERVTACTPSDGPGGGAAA
How it was run: as §1

Human Melanocortin (MC3) = target: T8, Human Melanocortin (MC3) (Homo sapiens, UniProt P41968); test: Radioligand binding, human melanocortin MC3 membranes, FlashPlate, [125I]-NDP-αMSH; conditions: compound at 10 μM; [125I]-NDP-αMSH
T8 construct: purchased Perkin Elmer Biosignal
T8 sequence (P41968 whole entry): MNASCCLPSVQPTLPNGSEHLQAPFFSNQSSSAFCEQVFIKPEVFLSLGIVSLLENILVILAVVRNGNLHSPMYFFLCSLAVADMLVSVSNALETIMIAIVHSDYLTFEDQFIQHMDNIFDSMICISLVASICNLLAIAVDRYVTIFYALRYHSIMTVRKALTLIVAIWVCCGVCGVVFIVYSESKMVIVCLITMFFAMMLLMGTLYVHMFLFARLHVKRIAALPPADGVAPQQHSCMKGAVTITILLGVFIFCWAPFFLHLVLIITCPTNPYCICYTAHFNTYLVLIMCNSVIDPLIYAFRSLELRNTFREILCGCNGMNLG
How it was run: as §1

Human μ-opioid (MOP) = target: T9, Human μ-opioid (MOP) (Homo sapiens, UniProt P35372); test: Radioligand binding, human μ-opioid (MOP) membranes, FlashPlate, [3H]-Naloxone; conditions: compound at 10 μM; [3H]-Naloxone
T9 construct: purchased Perkin Elmer Biosignal
T9 sequence (P35372 whole entry): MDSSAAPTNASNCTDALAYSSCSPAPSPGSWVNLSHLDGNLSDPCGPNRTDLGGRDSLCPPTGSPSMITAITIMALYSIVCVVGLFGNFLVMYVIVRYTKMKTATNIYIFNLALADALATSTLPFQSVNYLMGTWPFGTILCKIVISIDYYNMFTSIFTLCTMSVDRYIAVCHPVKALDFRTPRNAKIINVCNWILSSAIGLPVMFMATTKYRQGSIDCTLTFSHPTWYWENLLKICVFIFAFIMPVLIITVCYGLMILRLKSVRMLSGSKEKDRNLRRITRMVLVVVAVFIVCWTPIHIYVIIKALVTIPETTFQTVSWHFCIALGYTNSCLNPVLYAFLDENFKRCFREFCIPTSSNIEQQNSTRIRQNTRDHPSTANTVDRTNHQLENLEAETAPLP
How it was run: as §1

Human neurokinin (NK1) = target: T10, Human neurokinin (NK1) (Homo sapiens, UniProt P25103); test: Radioligand binding, human neurokinin NK1 membranes, filtration, [125I]-Substance P; conditions: compound at 10 μM; [125I]-Substance P
T10 construct: purchased Perkin Elmer Biosignal
T10 sequence (P25103 whole entry): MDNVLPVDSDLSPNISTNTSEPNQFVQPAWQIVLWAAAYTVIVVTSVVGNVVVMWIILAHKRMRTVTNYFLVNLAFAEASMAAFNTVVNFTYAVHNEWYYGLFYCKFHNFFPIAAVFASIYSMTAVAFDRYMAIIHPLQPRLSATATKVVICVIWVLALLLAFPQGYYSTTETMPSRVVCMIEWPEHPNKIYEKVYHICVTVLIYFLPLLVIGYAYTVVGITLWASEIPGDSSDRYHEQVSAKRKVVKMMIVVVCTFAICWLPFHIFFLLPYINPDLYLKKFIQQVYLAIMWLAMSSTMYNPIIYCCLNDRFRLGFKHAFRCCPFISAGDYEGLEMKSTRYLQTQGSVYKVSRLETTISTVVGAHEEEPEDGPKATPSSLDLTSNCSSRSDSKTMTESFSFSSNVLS
How it was run: as §2

Mouse urotensin (mUR2) = target: T11, Mouse urotensin (mUR2) (Mus musculus, UniProt Q8VIH9); test: Radioligand binding, mouse urotensin mUR2 membranes, FlashPlate, [125I]-Urotensin II; conditions: compound at 10 μM; [125I]-Urotensin II
T11 construct: purchased Perkin Elmer Biosignal
T11 sequence (Q8VIH9 1-385): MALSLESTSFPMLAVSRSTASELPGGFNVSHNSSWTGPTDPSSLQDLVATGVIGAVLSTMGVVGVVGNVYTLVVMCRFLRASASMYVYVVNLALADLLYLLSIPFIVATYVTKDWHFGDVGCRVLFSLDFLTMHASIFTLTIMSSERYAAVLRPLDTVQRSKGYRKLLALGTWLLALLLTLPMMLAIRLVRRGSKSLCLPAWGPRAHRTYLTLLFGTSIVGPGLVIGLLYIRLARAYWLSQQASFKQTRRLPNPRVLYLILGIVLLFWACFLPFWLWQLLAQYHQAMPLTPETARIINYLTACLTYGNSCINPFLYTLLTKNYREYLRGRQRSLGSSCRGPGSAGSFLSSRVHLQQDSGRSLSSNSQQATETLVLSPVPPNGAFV
How it was run: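 Cloned mouse urotensin (mUR2) receptor membranes from Perkin Elmer Biosignal were immobilized in FlashPlate microplates using a proprietary coating. Each well got 19.5 μl buffer, then 0.5 μl of DMSO, reference ligand, or compound. Adding 5 μl of [125I]-Urotensin II, diluted to 5× final concentration in binding buffer, started binding. Plates were sealed with TopSeal-A and incubated 1 hour at room temperature in the dark. Wells were counted for 30 seconds each on a TopCount after a 60-second delay, and percentage inhibition was calculated.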

CO[C@H]1[C@H](O)[C@@H](COCc2ccc(-c3ccccc3)cc2)OC(OCc2ccc(Cl)cc2)[C@@H]1NC(=O)CCCNC(=N)N (stereo partly shown) [compound 96]
A9 radioligand binding, percentage inhibition [1]: + (“+” indicates greater than 50% inhibition at 10 μM)
A10 radioligand binding, percentage inhibition (Human opioid (ORL1)): + (“+” indicates greater than 50% inhibition at 10 μM)
A2 radioligand binding, percentage inhibition (Human κ-Opioid (KOP)): + (“+” indicates greater than 50% inhibition at 10 μM)
A4 radioligand binding, percentage inhibition (Human Melanocortin (MC4)): + (“+” indicates greater than 50% inhibition at 10 μM)
A6 radioligand binding, percentage inhibition [2]: + (“+” indicates greater than 50% inhibition at 10 μM)
A5 radioligand binding, percentage inhibition (Human melanocortin (MC5)): + (“+” indicates greater than 50% inhibition at 10 μM)
A1 radioligand binding, percentage inhibition (Human δ-opioid (DOP)): − (“−” indicates less than 50% inhibition at 10 μM)
A3 radioligand binding, percentage inhibition (Human Melanocortin (MC3)): + (“+” indicates greater than 50% inhibition at 10 μM)
A7 radioligand binding, percentage inhibition (Human μ-opioid (MOP)): − (“−” indicates less than 50% inhibition at 10 μM)
A8 radioligand binding, percentage inhibition (Human neurokinin (NK1)): + (“+” indicates greater than 50% inhibition at 10 μM)
A11 radioligand binding, percentage inhibition (Mouse urotensin (mUR2)): − (“−” indicates less than 50% inhibition at 10 μM)

CO[C@H]1[C@H](O)[C@@H](COCc2ccc3ccccc3c2)OC(OCc2ccc(Cl)cc2)[C@@H]1NC(=O)CNC(=N)N (stereo partly shown) [compound 97]
A9 radioligand binding, percentage inhibition [1]: − (“−” indicates less than 50% inhibition at 10 μM)
A10 radioligand binding, percentage inhibition (Human opioid (ORL1)): + (“+” indicates greater than 50% inhibition at 10 μM)
A2 radioligand binding, percentage inhibition (Human κ-Opioid (KOP)): − (“−” indicates less than 50% inhibition at 10 μM)
A4 radioligand binding, percentage inhibition (Human Melanocortin (MC4)): + (“+” indicates greater than 50% inhibition at 10 μM)
A6 radioligand binding, percentage inhibition [2]: − (“−” indicates less than 50% inhibition at 10 μM)
A5 radioligand binding, percentage inhibition (Human melanocortin (MC5)): + (“+” indicates greater than 50% inhibition at 10 μM)
A1 radioligand binding, percentage inhibition (Human δ-opioid (DOP)): − (“−” indicates less than 50% inhibition at 10 μM)
A3 radioligand binding, percentage inhibition (Human Melanocortin (MC3)): + (“+” indicates greater than 50% inhibition at 10 μM)
A7 radioligand binding, percentage inhibition (Human μ-opioid (MOP)): − (“−” indicates less than 50% inhibition at 10 μM)
A8 radioligand binding, percentage inhibition (Human neurokinin (NK1)): + (“+” indicates greater than 50% inhibition at 10 μM)
A11 radioligand binding, percentage inhibition (Mouse urotensin (mUR2)): − (“−” indicates less than 50% inhibition at 10 μM)

CO[C@H]1[C@H](O)[C@@H](COCc2ccc3ccccc3c2)OC(OCc2ccc(Cl)cc2)[C@@H]1NC(=O)CCNC(=N)N (stereo partly shown) [compound 98]
A9 radioligand binding, percentage inhibition [1]: − (“−” indicates less than 50% inhibition at 10 μM)
A10 radioligand binding, percentage inhibition (Human opioid (ORL1)): − (“−” indicates less than 50% inhibition at 10 μM)
A2 radioligand binding, percentage inhibition (Human κ-Opioid (KOP)): − (“−” indicates less than 50% inhibition at 10 μM)
A4 radioligand binding, percentage inhibition (Human Melanocortin (MC4)): + (“+” indicates greater than 50% inhibition at 10 μM)
A6 radioligand binding, percentage inhibition [2]: + (“+” indicates greater than 50% inhibition at 10 μM)
A5 radioligand binding, percentage inhibition (Human melanocortin (MC5)): + (“+” indicates greater than 50% inhibition at 10 μM)
A1 radioligand binding, percentage inhibition (Human δ-opioid (DOP)): − (“−” indicates less than 50% inhibition at 10 μM)
A3 radioligand binding, percentage inhibition (Human Melanocortin (MC3)): − (“−” indicates less than 50% inhibition at 10 μM)
A7 radioligand binding, percentage inhibition (Human μ-opioid (MOP)): − (“−” indicates less than 50% inhibition at 10 μM)
A8 radioligand binding, percentage inhibition (Human neurokinin (NK1)): + (“+” indicates greater than 50% inhibition at 10 μM)
A11 radioligand binding, percentage inhibition (Mouse urotensin (mUR2)): − (“−” indicates less than 50% inhibition at 10 μM)

CO[C@H]1[C@H](O)[C@@H](COCc2ccc3ccccc3c2)OC(OCc2ccc(Cl)cc2)[C@@H]1NC(=O)CCCN (stereo partly shown) [compound 99]
A9 radioligand binding, percentage inhibition [1]: − (“−” indicates less than 50% inhibition at 10 μM)
A10 radioligand binding, percentage inhibition (Human opioid (ORL1)): − (“−” indicates less than 50% inhibition at 10 μM)
A2 radioligand binding, percentage inhibition (Human κ-Opioid (KOP)): − (“−” indicates less than 50% inhibition at 10 μM)
A4 radioligand binding, percentage inhibition (Human Melanocortin (MC4)): + (“+” indicates greater than 50% inhibition at 10 μM)
A6 radioligand binding, percentage inhibition [2]: − (“−” indicates less than 50% inhibition at 10 μM)
A5 radioligand binding, percentage inhibition (Human melanocortin (MC5)): + (“+” indicates greater than 50% inhibition at 10 μM)
A1 radioligand binding, percentage inhibition (Human δ-opioid (DOP)): − (“−” indicates less than 50% inhibition at 10 μM)
A3 radioligand binding, percentage inhibition (Human Melanocortin (MC3)): − (“−” indicates less than 50% inhibition at 10 μM)
A7 radioligand binding, percentage inhibition (Human μ-opioid (MOP)): − (“−” indicates less than 50% inhibition at 10 μM)
A8 radioligand binding, percentage inhibition (Human neurokinin (NK1)): + (“+” indicates greater than 50% inhibition at 10 μM)
A11 radioligand binding, percentage inhibition (Mouse urotensin (mUR2)): − (“−” indicates less than 50% inhibition at 10 μM)

CO[C@H]1[C@H](O)[C@@H](COCc2ccc3ccccc3c2)OC(OCc2ccc(Cl)cc2)[C@@H]1NC(=O)CCCNC(=N)N (stereo partly shown) [compound 100]
A9 radioligand binding, percentage inhibition [1]: − (“−” indicates less than 50% inhibition at 10 μM)
A10 radioligand binding, percentage inhibition (Human opioid (ORL1)): + (“+” indicates greater than 50% inhibition at 10 μM)
A2 radioligand binding, percentage inhibition (Human κ-Opioid (KOP)): − (“−” indicates less than 50% inhibition at 10 μM)
A4 radioligand binding, percentage inhibition (Human Melanocortin (MC4)): + (“+” indicates greater than 50% inhibition at 10 μM)
A6 radioligand binding, percentage inhibition [2]: + (“+” indicates greater than 50% inhibition at 10 μM)
A5 radioligand binding, percentage inhibition (Human melanocortin (MC5)): + (“+” indicates greater than 50% inhibition at 10 μM)
A1 radioligand binding, percentage inhibition (Human δ-opioid (DOP)): − (“−” indicates less than 50% inhibition at 10 μM)
A3 radioligand binding, percentage inhibition (Human Melanocortin (MC3)): + (“+” indicates greater than 50% inhibition at 10 μM)
A7 radioligand binding, percentage inhibition (Human μ-opioid (MOP)): + (“+” indicates greater than 50% inhibition at 10 μM)
A8 radioligand binding, percentage inhibition (Human neurokinin (NK1)): + (“+” indicates greater than 50% inhibition at 10 μM)
A11 radioligand binding, percentage inhibition (Mouse urotensin (mUR2)): − (“−” indicates less than 50% inhibition at 10 μM)
